From patent US20150140123A1, “Protein expression analyses for identifying genotoxic compounds” (Merck Patent GmbH, priority 2012, published 2015)
Like-named read-outs stand apart in the source and are kept apart here.

Tests used:
[1] = tested on: p-p53 (Ser15), p21, p-H2A.X (Ser139), p-ATM (Ser1981), p-Chk1 (Ser345) in HepG2 cells
Experimental: (§1) HepG2 cells (Order No. HB-8065, Lot. 58483209, ATCC, Manassas, USA) were cultured in DMEM/F12 with L-Glutamine and 15 mM Hepes supplemented with 10% (v/v) FBS, 1% (v/v) penicillin (10 kU/ml)/streptomycin (10 mg/ml) solution, 0.1% (v/v) gentamicin (50 mg/ml), and 1 mM sodium pyruvate at 37° C. and 5% CO2 in culture flasks. Depending on the experiment, an appropriate number of cells were seeded onto plates after detaching of the cells using trypsin and cells were cultured at 37° C. and 5% CO2 for 24 h prior to treatment. All experiments were performed three times with cells of passages 4-20.
(§2) Cells were seeded onto black Poly-D-Lysin coated 96-well-plates (BD Biocoat, Franklin Lakes, USA) (0.02×10^6 cells/well) and left 24 h for adherence and then treated with test compounds at a maximum concentration of 1 mM which is recommended by the ICH S2(R1) guideline (EMA, 2011). For each compound, nine concentrations were tested with 2-fold serial dilutions. DMSO 1% (v/v) served as vehicle control for the experiments. The treatment procedure was different for direct-genotoxic and pro-genotoxic compounds. The treatment for direct genotoxic compounds was ongoing and was repeated daily over 48 h. Pro-genotoxic compounds were incubated for 6 h together with metabolic activation system (to limit the cytotoxic effect of the S9-mixture). After this period, cells were washed with cell media followed by 18-repeated daily over 48 h. The metabolic activation system used consisted of the following components and concentrations: 8 mM MgCl2, 32.8 mM KCl, 12 mM NADPH, 124 mM phosphate buffer and 2500 pmol/ml cytochrome P450 (CYP) content in the pre-mixture corresponding to 2.4 mM MgCl2, 9.8 mM KCl, 3.6 mM NADPH, 37.2 mM phosphate buffer, and 750 pmol/ml CYP as final concentrations after dilution 1:3.33 with cell culture media.
Two different staining procedures were performed for each compound with and without metabolic activation system:
After treatment, cells were rinsed with PBS (Gibco Invitrogen, Karlsruhe, Germany), and then fixed with 3.7% formaldehyde (Sigma-Aldrich, Taufkirchen, Germany) in PBS for 20 min. After an additional washing step with PBS, cells were blocked and permeabilized with 2% donkey serum (Millipore, Schwalbach, Germany) and 0.25% Triton X-100 (Sigma-Aldrich, Taufkirchen, Germany) in PBS for 30 min. Primary antibodies were diluted to final concentrations of 2 μg/ml anti-p-p53 (Ser15) rabbit monoclonal antibody IgG (Invitrogen, Karlsruhe, Germany), 0.8 μg/ml anti-p21 goat polyclonal antibody IgG, (R&D systems, Minneapolis, USA); 4 μg/ml anti-p-Histone H2A.X (Ser139) mouse monoclonal antibody IgG1 (Millipore, Schwalbach, Germany) in Blocking/Permeabilization solution were added afterwards. After incubation for 16-18 h, cells were washed with 0.05% Tween 20 (Calbiochem, Darmstadt, Germany) in PBS and the secondary antibody/16 μM Hoechst staining solution in Blocking/Permeabilization solution was added. Secondary antibodies were diluted 1:400 (Alexa Fluor 488 donkey anti-rabbit, Alexa Fluor 555 donkey anti-goat, Alexa Fluor 647 donkey anti-mouse, Invitrogen, Karlsruhe, Germany). After an incubation of 1 h, followed by two additional washing steps with 0.05% Tween 20, cells were washed with PBS and finally PBS was added and cells were measured.
After treatment, cells were rinsed with PBS (Gibco Invitrogen, Karlsruhe, Germany), and then stained with 10 μM CellTracker Green 5-Chloromethylfluorescein Diacetate (CMFDA) (Invitrogen, Karlsruhe, Germany) in cell culture media for 30 min. CMFDA is per se non-fluorescent and is hydrolyzed by esterase in viable cells to a fluorescent-dye. The reaction with thiol groups leads to a cell-impermeable fluorescent-dye-adduct. The esterase activity can be used as an indicator for viability of cells (Papadopoulos et al., 1994, J Immunol Methods 177, 101-11). Afterwards, cells were washed with PBS and fixed with 3.7% Formaldehyde (Sigma-Aldrich, Taufkirchen, Germany) in PBS for 20 min.

HepG2 cells = test: High content imaging cytotoxicity parameters: selected cell count per valid field (SCC) and CMFDA cytoplasm average intensity
Experimental: as §1, §2
After treatment, cells were rinsed with PBS (Gibco Invitrogen, Karlsruhe, Germany), and then stained with 10 μM CellTracker Green 5-Chloromethylfluorescein Diacetate (CMFDA) (Invitrogen, Karlsruhe, Germany) in cell culture media for 30 min. CMFDA is per se non-fluorescent and is hydrolyzed by esterase in viable cells to a fluorescent-dye. The reaction with thiol groups leads to a cell-impermeable fluorescent-dye-adduct. The esterase activity can be used as an indicator for viability of cells (Papadopoulos et al., 1994, J Immunol Methods 177, 101-11). Afterwards, cells were washed with PBS and fixed with 3.7% Formaldehyde (Sigma-Aldrich, Taufkirchen, Germany) in PBS for 20 min. After that, cells were washed with PBS and blocked and permeabilized with 2% donkey serum (Millipore, Schwalbach, Germany) and 0.25% Triton X-100 (Sigma-Aldrich, Taufkirchen, Germany) in PBS for 30 min. Primary antibodies were diluted in Blocking/Permeabilization solution to final concentrations of 4 μg/ml anti-p-Chk1 (Ser345) goat polyclonal antibody IgG (santa cruz, Santa Cruz, USA), 4 μg/ml anti-p-ATM (Ser1981) mouse monoclonal antibody IgG1K (Millipore, Schwalbach, Germany) and added to the cells. After incubation for 16-18 h, cells were washed with 0.05% Tween 20 (Calbiochem, Darmstadt, Germany) in PBS, and the secondary antibody/16 μM Hoechst staining solution Blocking/Permeabilization solution was added. Secondary antibodies were diluted 1:400 (Alexa Fluor 555 donkey anti-goat, Alexa Fluor 647 donkey anti-mouse, Invitrogen, Karlsruhe, Germany). After an incubation of 1 h, followed by two additional washing steps with 0.05% Tween 20, cells were washed with PBS and finally PBS was added and cells were measured.
Image acquisition was performed on the ArrayScan VTI HCS Reader (Cellomics, Pittsburgh, USA) using a 20× objective. To detect enough cells, 50 images starting at the middle of each well were gathered.
• Channel 1: selected cell count per valid field • Channel 2: CMFDA cytoplasm average intensity • Channel 3: p-Chk1 (Ser345) nucleus average intensity • Channel 4: p-ATM (Ser1981) nucleus average intensity

p-ATM (Ser1981) = test: High content imaging of p-ATM (Ser1981) nucleus average intensity; type: cell-based, human; settings: HepG2 cells, 48 h; fold-change over vehicle control, threshold 1.8
Experimental: as §1
Cells were seeded onto black Poly-D-Lysin coated 96-well-plates (BD Biocoat, Franklin Lakes, USA) (0.02×10^6 cells/well) and left 24 h for adherence and then treated with test compounds at a maximum concentration of 1 mM which is recommended by the ICH S2(R1) guideline (EMA, 2011). […]
After treatment, cells were rinsed with PBS (Gibco Invitrogen, Karlsruhe, Germany), and then stained with 10 μM CellTracker Green 5-Chloromethylfluorescein Diacetate (CMFDA) (Invitrogen, Karlsruhe, Germany) in cell culture media for 30 min. […] After an incubation of 1 h, followed by two additional washing steps with 0.05% Tween 20, cells were washed with PBS and finally PBS was added and cells were measured.
Image acquisition was performed on the ArrayScan VTI HCS Reader (Cellomics, Pittsburgh, USA) using a 20× objective. […]

[2] = HepG2 cells, 48 h, CMFDA cytoplasm average intensity, with rat liver S9 (+S9)
[3] = HepG2 cells, 48 h, CMFDA cytoplasm average intensity, without metabolic activation (−S9)
[4] = HepG2 cells, 48 h, selected cell count per valid field, with rat liver S9 (+S9)
[5] = HepG2 cells, 48 h, selected cell count per valid field, without metabolic activation (−S9)
[6] = HepG2 cells ± S9, 48 h, positive if at least one of five proteins shows fold-change above threshold (2.1 p-Chk1, p-H2A.X; 1.8 p21, p-ATM; 1.9 p-p53)

SMILES | result for the five protein markers tested (compound set as positive or negative) [1] | CMFDA +S9 highest conc. <50% cytotox. over control (HepG2 cells; [2]) [µM] | CMFDA −S9 highest conc. <50% cytotox. over control (HepG2 cells; [3]) [µM] | SCC +S9 highest conc. <50% cytotox. over control (HepG2 cells; [4]) [µM] | SCC −S9 highest conc. <50% cytotox. over control (HepG2 cells; [5]) [µM] | result for the five protein markers tested (compound set as positive or negative) [1, 6] | CMFDA +S9 highest conc. <50% cytotox. over control (HepG2 cells; human, 48 h) [µM] | CMFDA −S9 highest conc. <50% cytotox. over control (HepG2 cells; human, 48 h) [µM] | SCC +S9 highest conc. <50% cytotox. over control (HepG2 cells; human, 48 h) [µM] | SCC −S9 highest conc. <50% cytotox. over control (HepG2 cells; human, 48 h) [µM] | also measured
O=[N+]([O-])c1ccc(O)cc1 [p-Nitrophenol] | positive | – | – | – | – | – | – | – | – | – | –
Cc1ccc(N)cc1N [2,4-diaminotoluene] | – | 1000 | 1000 | 1000 | 1000 | no positive result | – | – | – | – | –
CCN(N=O)C(N)=O [Ethylnitrosourea] | – | 1000 | 1000 | 1000 | 1000 | no positive result | – | – | – | – | –
c1ccc2c(c1)ccc1ccccc12 [Phenanthrene] | – | – | – | – | – | – | 1000 | 1000 | 1000 | 1000 | result for p-ATM (Ser1981) (p-ATM (Ser1981)): positive
C=CCc1ccc(O)c(OC)c1 [Eugenol] | positive | – | – | – | – | – | 125 | 1000 | 125 | 1000 | –
Oc1ccc(Cl)cc1Cl [2,4-Dichlorophenol] | – | – | – | – | – | positive | – | – | – | – | CMFDA +S9 highest conc. <50% cytotox. over control (HepG2 cells; human): 1000 µM; CMFDA −S9 highest conc. <50% cytotox. over control (HepG2 cells; human): 1000 µM; SCC +S9 highest conc. <50% cytotox. over control (HepG2 cells; human): 500 µM; SCC −S9 highest conc. <50% cytotox. over control (HepG2 cells; human): 250 µM
CCCOC(=O)c1cc(O)c(O)c(O)c1 [Propyl gallate] | positive | – | – | – | – | – | 1000 | 1000 | 1000 | 500 | –
[Cl][Cd][Cl] [Cadmium chloride] | – | 62.5 | 62.5 | 125 | 31.25 | no positive result | – | – | – | – | –
CN(C)N=O [Dimethylnitrosamine] | – | 1000 | 1000 | 1000 | 1000 | no positive result | – | – | – | – | –
O=C(N[C@H](CO)[C@H](O)c1ccc([N+](=O)[O-])cc1)C(Cl)Cl [Chloramphenicol] | – | – | – | – | – | – | 1000 | 1000 | 1000 | 1000 | –
